Source: PubChem BioAssay (NCI)
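Five compound concentrations were applied to cells in 96-well plates for 48 hours; endpoints were derived by simple linear interpolation of the resulting dose-response curve. GI50: concentration for 50% inhibition of growth. At the TGI there is no net growth.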

How the values were obtained:
Test in all cases: NCI tumour cell line growth inhibition, 48 h
HCT-15 colon = tested on: HCT-15 colon
MALME-3M melanoma = tested on: MALME-3M melanoma
MOLT-4 leukemia = tested on: MOLT-4 leukemia
RPMI-8226 leukemia = tested on: RPMI-8226 leukemia
SK-MEL-2 melanoma = tested on: SK-MEL-2 melanoma
SK-MEL-28 melanoma = tested on: SK-MEL-28 melanoma
UACC-62 melanoma = tested on: UACC-62 melanoma
SR leukemia = tested on: SR leukemia
DU-145 prostate = tested on: DU-145 prostate
PC-3 prostate = tested on: PC-3 prostate

SMILES | TGI (HCT-15 colon) [µM] | TGI (MALME-3M melanoma) [µM] | TGI (MOLT-4 leukemia) [µM] | TGI (RPMI-8226 leukemia) [µM] | TGI (SK-MEL-2 melanoma) [µM] | TGI (SK-MEL-28 melanoma) [µM] | TGI (UACC-62 melanoma) [µM] | TGI (SR leukemia) [µM] | GI50 (DU-145 prostate) [µM] | TGI (DU-145 prostate) [µM] | GI50 (HCT-15 colon) [µM] | GI50 (MALME-3M melanoma) [µM] | GI50 (MOLT-4 leukemia) [µM] | GI50 (PC-3 prostate) [µM] | TGI (PC-3 prostate) [µM] | GI50 (RPMI-8226 leukemia) [µM] | GI50 (SK-MEL-28 melanoma) [µM] | GI50 (SR leukemia) [µM] | GI50 (UACC-62 melanoma) [µM]
O=c1c2ccc(Br)cc2nc(-c2ccccc2)n1NC1OC(CO)C(O)C(O)C1O (stereo unspecified) | > 100 | > 100 | > 100 | > 100 | > 100 | > 100 | > 100 | – | – | – | – | – | – | – | – | – | – | – | –
COc1cc(C2C(C(=O)Nc3ccccc3C)=C(C)NC(C)=C2C(=O)Nc2ccccc2C)ccc1O | – | > 100 | > 100 | > 100 | > 100 | > 100 | > 100 | – | – | – | – | – | – | – | – | – | – | – | –
CN=C(NC#N)NCc1ccccc1 | > 100 | > 100 | > 100 | > 100 | > 100 | > 100 | – | > 100 | – | – | – | – | – | – | – | – | – | – | –
Nc1c(S(=O)(=O)O)cc2c(c1Cl)C(=O)c1ccccc1C2=O | > 100 | > 100 | > 100 | > 100 | – | > 100 | > 100 | > 100 | > 100 | > 100 | > 100 | > 100 | > 100 | > 100 | > 100 | > 100 | > 100 | > 100 | > 100
CC(=O)NC1C(OCc2ccccc2)OC(COC(=O)CCCCCCCCCCNC(=O)CCNc2ccc([N+](=O)[O-])c3[nH]c4ccc(O)cc4c(=O)c23)C(O)C1OC(C)C(=O)N[C@H](C(=O)N[C@H](CCC(=O)O)C(N)=O)C(C)C (stereo partly specified) | > 100 | > 100 | > 100 | 46.6 | > 100 | > 100 | > 100 | 45.4 | – | – | – | – | – | – | – | – | – | – | –
COc1cc(C2C(Cl)C(=O)N2NC(=O)c2ccccc2O)cc(OC)c1OC (stereo unspecified) | – | – | > 10 | – | – | – | > 10 | > 10 | – | 1.91 | – | – | – | – | > 10 | – | – | – | –
CC(=O)c1ccc(-c2ccc(C(C)=O)s2)s1 | > 100 | > 100 | > 100 | > 100 | > 100 | 3.24 | > 100 | > 100 | – | – | – | – | – | – | – | – | – | – | –
O=C(NCCOCCO)c1ccc(O)cc1 | > 100 | – | > 100 | > 100 | – | > 100 | > 100 | – | – | – | – | – | – | – | – | – | – | – | –
O=C1C2Cc3ccccc3CN2C(=O)N1CCN1CCOCC1 (stereo unspecified) | > 100 | > 100 | > 100 | > 100 | > 100 | > 100 | > 100 | > 100 | – | – | – | – | – | – | – | – | – | – | –
Nc1c(-c2ccc(-c3c(N)[n+]([O-])c4ccccc4[n+]3[O-])cc2)[n+]([O-])c2ccccc2[n+]1[O-] | 15.4 | 8.57 | > 100 | > 100 | 28.9 | 20.9 | 24.3 | – | – | – | – | – | – | – | – | – | – | – | –
O=C1OC(/C=C/c2ccccc2)C(=O)C1=O (stereo unspecified) | > 100 | > 100 | > 100 | > 100 | > 100 | > 100 | > 100 | – | – | – | – | – | – | – | – | – | – | – | –
CCN(CC)[C@@H]1c2cc3c(cc2C(c2cc(OC)c(O)c(OC)c2)C2C(=O)CO[C@@H]21)OCO3 (stereo partly specified) | > 100 | > 100 | > 100 | > 100 | > 100 | > 100 | > 100 | > 100 | – | – | – | – | – | – | – | – | – | – | –
COC(=O)C1=CCS(=O)(=O)C1 | > 100 | > 100 | > 100 | > 100 | > 100 | > 100 | > 100 | – | – | – | – | – | – | – | – | – | – | – | –
